Legend:
Staphylococcus aureus [1] = test: Antibacterial activity against methicillin-resistant Staphylococcus aureus 2658 RCMB after 20 hrs by broth microdilution assay; format: functional
Staphylococcus aureus [2] = test: Antibacterial activity against Staphylococcus aureus after 20 hrs by broth microdilution assay; format: functional
Staphylococcus aureus [3] = test: Bactericidal activity against methicillin-sensitive Staphylococcus aureus NRS107 incubated for 20 hrs followed by re-plating on tryptic soy agar plates at 37 degC for 18 hrs by broth microdilution assay; format: functional
Staphylococcus aureus [4] = test: Antibacterial activity against methicillin-resistant Staphylococcus aureus after 20 hrs by broth microdilution assay; format: functional
Staphylococcus aureus [5] = test: Bactericidal activity against linezolid-resistant Staphylococcus aureus NRS119 incubated for 20 hrs followed by re-plating on tryptic soy agar plates at 37 degC for 18 hrs by broth microdilution assay; format: functional
Staphylococcus aureus [6] = test: Bactericidal activity against Staphylococcus aureus USA400 NRS123 incubated for 20 hrs followed by re-plating on tryptic soy agar plates at 37 degC for 18 hrs by broth microdilution assay; format: functional
Staphylococcus aureus [7] = test: Bactericidal activity against Staphylococcus aureus USA300 NRS384 incubated for 20 hrs followed by re-plating on tryptic soy agar plates at 37 degC for 18 hrs by broth microdilution assay; format: functional
Staphylococcus aureus [8] = test: Antibacterial activity against methicillin-resistant Staphylococcus aureus NRS385 after 20 hrs by broth microdilution assay; format: functional; details: NRS385, 20 h
Staphylococcus aureus [9] = test: Bactericidal activity against methicillin-resistant Staphylococcus aureus NRS385 incubated for 20 hrs followed by re-plating on tryptic soy agar plates at 37 degC for 18 hrs by broth microdilution assay; format: functional
Staphylococcus aureus [10] = test: Antibacterial activity against methicillin-resistant Staphylococcus aureus NRS386 after 20 hrs by broth microdilution assay; format: functional; details: NRS386, 20 h
Staphylococcus aureus [11] = test: Bactericidal activity against methicillin-resistant Staphylococcus aureus NRS386 incubated for 20 hrs followed by re-plating on tryptic soy agar plates at 37 degC for 18 hrs by broth microdilution assay; format: functional
Staphylococcus aureus [12] = test: Antibacterial activity against vancomycin-resistant Staphylococcus aureus VRSA10 after 20 hrs by broth microdilution assay; format: functional; details: VRSA10, 20 h
Staphylococcus aureus [13] = test: Bactericidal activity against vancomycin-resistant Staphylococcus aureus VRSA10 incubated for 20 hrs followed by re-plating on tryptic soy agar plates at 37 degC for 18 hrs by broth microdilution assay; format: functional
Staphylococcus aureus [14] = test: Antibacterial activity against vancomycin-resistant Staphylococcus aureus VRSA12 after 20 hrs by broth microdilution assay; format: functional; details: VRSA12, 20 h
Staphylococcus aureus [15] = test: Bactericidal activity against vancomycin-resistant Staphylococcus aureus VRSA12 incubated for 20 hrs followed by re-plating on tryptic soy agar plates at 37 degC for 18 hrs by broth microdilution assay; format: functional
[16] = tested on: Staphylococcus epidermidis; test: Antibacterial activity against methicillin-resistant Staphylococcus epidermidis NRS101 after 20 hrs by broth microdilution assay; format: functional; details: NRS101, 20 h
[17] = tested on: Staphylococcus epidermidis; test: Bactericidal activity against methicillin-resistant Staphylococcus epidermidis NRS101 incubated for 20 hrs followed by re-plating on tryptic soy agar plates at 37 degC for 18 hrs by broth microdilution assay; format: functional
Enterococcus faecalis [18] = test: Antibacterial activity against vancomycin-resistant Enterococcus faecalis ATCC 51299 after 20 hrs by broth microdilution assay; format: functional; details: ATCC 51299, 20 h
Enterococcus faecalis [19] = test: Bactericidal activity against vancomycin-resistant Enterococcus faecalis ATCC 51299 incubated for 20 hrs followed by re-plating on tryptic soy agar plates at 37 degC for 18 hrs by broth microdilution assay; format: functional
Enterococcus faecium [20] = test: Antibacterial activity against vancomycin-resistant Enterococcus faecium ATCC 700221 after 20 hrs by broth microdilution assay; format: functional; details: ATCC 700221, 20 h
Enterococcus faecium [21] = test: Bactericidal activity against vancomycin-resistant Enterococcus faecium ATCC 700221 incubated for 20 hrs followed by re-plating on tryptic soy agar plates at 37 degC for 18 hrs by broth microdilution assay; format: functional
Listeria monocytogenes [22] = test: Antibacterial activity against Listeria monocytogenes ATCC 19111 after 20 hrs by broth microdilution assay; format: functional; details: ATCC 19111, 20 h
Listeria monocytogenes [23] = test: Bactericidal activity against Listeria monocytogenes ATCC 19111 incubated for 20 hrs followed by re-plating on tryptic soy agar plates at 37 degC for 18 hrs by broth microdilution assay; format: functional
Streptococcus pneumoniae [24] = test: Antibacterial activity against cephalosporin-resistant Streptococcus pneumoniae ATCC 51916 after 20 hrs by broth microdilution assay; format: functional; details: ATCC 51916, 20 h
Streptococcus pneumoniae [25] = test: Bactericidal activity against cephalosporin-resistant Streptococcus pneumoniae ATCC 51916 incubated for 20 hrs followed by re-plating on tryptic soy agar plates at 37 degC for 18 hrs by broth microdilution assay; format: functional
Streptococcus pneumoniae [26] = test: Antibacterial activity against methicillin-resistant Streptococcus pneumoniae ATCC 700677 after 20 hrs by broth microdilution assay; format: functional; details: ATCC 700677, 20 h
Streptococcus pneumoniae [27] = test: Bactericidal activity against methicillin-resistant Streptococcus pneumoniae ATCC 700677 incubated for 20 hrs followed by re-plating on tryptic soy agar plates at 37 degC for 18 hrs by broth microdilution assay; format: functional
Enterococcus faecalis [28] = test: Ratio of MBC to MIC for vancomycin-resistant Enterococcus faecalis ATCC 51299; format: functional
Listeria monocytogenes [29] = test: Ratio of MBC to MIC for Listeria monocytogenes ATCC 19111; format: functional
Staphylococcus aureus [30] = test: Bactericidal activity against Staphylococcus aureus USA400 assessed as reduction in colony forming unit at 6 times MIC treated for 2 hrs followed by re-plating on tryptic soy agar plates at 37 degC for 18 to 20 hrs by broth microdilution assay; format: functional; set-up: scale not given: the % may be the effect or the level left
Staphylococcus aureus [31] = test: Bactericidal activity against Staphylococcus aureus USA400 assessed as reduction in colony forming unit at 3 times MIC treated for 4 hrs followed by re-plating on tryptic soy agar plates at 37 degC for 18 to 20 hrs by broth microdilution assay; format: functional; set-up: scale not given: the % may be the effect or the level left
Staphylococcus aureus [32] = test: Antibacterial activity against methicillin-resistant Staphylococcus aureus USA400 NRS123 assessed as ratio of MIC after and before 14 passages over 2 weeks by broth microdilution method; format: functional
Caco-2 = test: Cytotoxicity against human Caco2 cells assessed as effect on cell viability up to 64 ug/ml after 2 hrs by MTS assay; format: cell-based; details: caco-2, 2 h
[33] = Selectivity index, ratio of compound effect for human Caco2 cells at maximum non-toxic concentration concentration to MIC for methicillin-resistant Staphylococcus epidermidis NRS101; format: toxicity; details: Caco-2 cells, read-out: Selectivity Index
[34] = Selectivity index, ratio of compound effect for human Caco2 cells at maximum non-toxic concentration concentration to MIC for vancomycin-resistant Enterococcus faecalis ATCC 51299; format: toxicity; details: Caco-2 cells, read-out: Selectivity Index
[35] = Selectivity index, ratio of compound effect for human Caco2 cells at maximum non-toxic concentration concentration to MIC for vancomycin-resistant Enterococcus faecium ATCC 700221; format: toxicity; details: Caco-2 cells, read-out: Selectivity Index
[36] = Selectivity index, ratio of compound effect for human Caco2 cells at maximum non-toxic concentration concentration to MIC for Listeria monocytogenes ATCC 19111; format: toxicity; details: Caco-2 cells, read-out: Selectivity Index
[37] = Selectivity index, ratio of compound effect for human Caco2 cells at maximum non-toxic concentration concentration to MIC for cephalosporin-resistant Streptococcus pneumoniae ATCC 51916; format: toxicity; details: Caco-2 cells, read-out: Selectivity Index
[38] = Selectivity index, ratio of compound effect for human Caco2 cells at maximum non-toxic concentration concentration to MIC for methicillin-resistant Streptococcus pneumoniae ATCC 700677; format: toxicity; details: Caco-2 cells, read-out: Selectivity Index

CCCCCCCOc1ccc(-c2nc(C)c(-c3ccnc(NC(=N)N4CCN(C)CC4)n3)s2)cc1
7 to 82: selectivity ratio [33] | selectivity ratio [34] | selectivity ratio [35] | selectivity ratio [36] | selectivity ratio [37] | selectivity ratio [38]
100%: Activity (Staphylococcus aureus [30]) | Activity (Staphylococcus aureus [31])
4 µg/mL: MIC (Listeria monocytogenes [22])
1: Ratio (Enterococcus faecalis [28]) | Ratio (Listeria monocytogenes [29]) | Ratio (Staphylococcus aureus [32])
Non-Toxic: Activity (Caco-2)
0.78 µg/mL: MIC (Staphylococcus aureus [1])
16 µg/mL: MBC (Enterococcus faecalis [19]) | MIC (Streptococcus pneumoniae [24]) | MBC (Streptococcus pneumoniae [25]) | MIC (Streptococcus pneumoniae [26]) | MBC (Streptococcus pneumoniae [27])
8 µg/mL: MIC (Staphylococcus aureus [2]) | MBC (Staphylococcus aureus [3]) | MIC (Staphylococcus aureus [4]) | MBC (Staphylococcus aureus [5]) | MBC (Staphylococcus aureus [6]) | MBC (Staphylococcus aureus [7]) | MIC (Staphylococcus aureus [8]) | MBC (Staphylococcus aureus [9]) | MIC (Staphylococcus aureus [10]) | MBC (Staphylococcus aureus [11]) | MIC (Staphylococcus aureus [12]) | MBC (Staphylococcus aureus [13]) | MIC (Staphylococcus aureus [14]) | MBC (Staphylococcus aureus [15]) | MIC [16] | MBC [17] | MIC (Enterococcus faecalis [18]) | MIC (Enterococcus faecium [20]) | MBC (Enterococcus faecium [21]) | MBC (Listeria monocytogenes [23])

Source: ChEMBL document CHEMBL4152249, “Alkoxyphenylthiazoles with broad-spectrum activity against multidrug-resistant gram-positive bacterial pathogens” (Eur J Med Chem, 2018)
